{"source": "patent US20260168988A1", "about": "“GENETICALLY ENCODED REPORTER EXPRESSION SYSTEMS AND METHODS OF MAKING AND USING SAME” (Duke University, priority 2021, published 2026)", "type_in_all_cases": "cell-based", "key": {"METTL3 [1]": {"test_system": "METTL3", "experiment": "m6A sensor system in METTL3 degron cells treated with auxin", "conditions": "METTL3 degron HEK293T cells, auxin 48 hours, compared to DMSO-treated cells", "protocol": "To confirm that the m^6A sensor is METTL3-dependent, the m^6A sensor system was expressed in HEK293T cells which contain an auxin-inducible degradation tag at the endogenous METTL3 locus (METTL3 degron cells). Cells were treated with auxin for 48 hours and then transfected with the m^6A sensor system. […] Conversely, overexpression of METTL3 causes increased GFP fluorescence, a higher GFP:GFP-DHFR ratio, and increased C-to-U editing of the sensor sequence (FIGS. 5A-5C)."}, "NMD": {"test_system": "NMD", "experiment": "m6A reporter mRNA levels after blocking nonsense-mediated decay (RT-qPCR)", "conditions": "HEK293T cells expressing the m6A sensor system, CHX for 24 h", "protocol": "HEK293T cells expressing the m6A sensor system were treated with CHX for 24 h to inhibit NMD, followed by RT-qPCR of the m^6A reporter mRNA.\nThe possibility that the m^6A reporter mRNA could be susceptible to nonsense-mediated decay (NMD), since editing of the m6A reporter mRNA produces premature stop codons, was investigated. However, this is unlikely since most NMD requires the presence of the exon junction complex (EJC), and the m^6A reporter transcript lacks introns."}, "APO1-YTH": {"test_system": "APO1-YTH", "experiment": "Inducible APO1-YTH expression in HEK293T stable m6A reporter cell lines", "conditions": "time courses of dox induction", "excerpt": "HEK293T stable cells were generated which express both the m^6A reporter and APO1-YTH. The m^6A reporter was constitutively expressed from the CMV reporter, while APO1-YTH was inducibly expressed after treatment of cells with doxycycline (dox).\nCyclophilin A (CycloA) is shown as a loading control.\nAnother embodiment of the present disclosure provides stable cell lines that express the m^6A reporter system as provided herein. To do this, stable cell lines expressing both the m^6A reporter and APO1-YTH were generated by transfecting HEK293T cells with a dual-promoter plasmid encoding both components of the reporter system. This plasmid drives m^6A reporter expression from the CMV promoter and APO1-YTH expression using an inducible […] promoter. However, any dual-promoter system could also be used and different promoters (inducible and constitutive) could also be used with this m^6A reporter system. The m^6A reporter system provided herein may also be applied in other mammalian and non-mammalian cell types as well.\nFollowing selection of stable cells with puromycin resistance which was conferred by genomic integration of the plasmid, it was next sought to confirm that the reporter system works in the context of stable integration of the m^6A reporter and APO1-YTH components. […]"}, "METTL3 [2]": {"target": "T1, METTL3 (Homo sapiens, UniProt Q86U44)", "T1 construct": "endogenous in cells; host or cells: HEK293T", "T1 sequence (Q86U44 2-580 limits assumed)": "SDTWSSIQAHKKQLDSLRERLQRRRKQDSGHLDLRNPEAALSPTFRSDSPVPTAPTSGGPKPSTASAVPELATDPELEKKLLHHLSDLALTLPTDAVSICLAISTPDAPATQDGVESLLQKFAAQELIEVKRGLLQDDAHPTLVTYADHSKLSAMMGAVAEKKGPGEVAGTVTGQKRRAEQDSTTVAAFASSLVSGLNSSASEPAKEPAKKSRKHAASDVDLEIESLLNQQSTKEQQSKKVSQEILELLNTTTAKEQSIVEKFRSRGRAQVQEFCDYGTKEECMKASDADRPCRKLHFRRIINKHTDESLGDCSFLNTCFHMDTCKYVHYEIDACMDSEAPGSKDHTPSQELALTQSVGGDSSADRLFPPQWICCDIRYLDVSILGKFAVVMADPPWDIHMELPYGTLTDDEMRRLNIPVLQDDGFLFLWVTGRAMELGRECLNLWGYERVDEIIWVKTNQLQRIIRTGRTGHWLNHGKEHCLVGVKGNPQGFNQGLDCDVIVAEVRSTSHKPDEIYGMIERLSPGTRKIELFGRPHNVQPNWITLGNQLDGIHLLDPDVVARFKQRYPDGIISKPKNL", "T1 sequence (Q9HCE5 whole entry partner)": "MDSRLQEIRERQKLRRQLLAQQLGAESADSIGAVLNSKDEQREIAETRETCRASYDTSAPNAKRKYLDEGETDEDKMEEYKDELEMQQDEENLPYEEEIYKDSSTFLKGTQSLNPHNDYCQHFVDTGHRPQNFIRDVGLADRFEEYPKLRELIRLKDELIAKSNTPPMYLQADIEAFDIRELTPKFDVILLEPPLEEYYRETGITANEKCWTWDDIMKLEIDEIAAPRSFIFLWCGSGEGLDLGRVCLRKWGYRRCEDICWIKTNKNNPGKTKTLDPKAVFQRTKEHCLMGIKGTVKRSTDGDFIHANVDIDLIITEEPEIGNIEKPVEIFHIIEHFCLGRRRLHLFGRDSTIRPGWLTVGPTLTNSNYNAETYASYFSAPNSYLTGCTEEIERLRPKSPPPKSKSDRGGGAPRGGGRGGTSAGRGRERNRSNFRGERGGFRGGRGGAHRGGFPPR", "experiment": "m6A sensor system in HEK293T cells treated with METTL3 inhibitor", "conditions": "HEK293T cells expressing the m6A sensor system, after treatment"}}, "note": "Entries after “also recorded” stand apart in the source; their conditions may differ."}
{"molecule": "O=C(O)Cc1c[nH]c2ccccc12", "note": "[auxin]", "values": [{"measurement": "C-to-U editing of the m6A sensor sequence (RT-PCR/Sanger sequencing)", "setting": "METTL3 [1]", "value": "decreased C-to-U editing"}, {"measurement": "GFP:GFP-DHFR ratio (western blot)", "setting": "METTL3 [1]", "value": "reduced GFP:GFP-DHFR ratio"}, {"measurement": "C-to-U editing of the m6A sensor sequence (RT-PCR/Sanger sequencing)", "setting": "METTL3 [1]; listed as Auxin", "value": "reduced C-to-U editing"}, {"measurement": "GFP fluorescence of m6A sensor", "setting": "METTL3 [1]; then transfected, assessed 24 hours later", "value": "greatly diminished; also recorded: reduced m^6A sensor fluorescence"}]}
{"molecule": "C[C@@H]1C[C@@H]([C@H](O)CC2CC(=O)NC(=O)C2)C(=O)[C@@H](C)C1", "note": "[cycloheximide]", "values": [{"measurement": "levels of the m6A reporter mRNA (RT-qPCR)", "setting": "NMD", "value": "did not cause changes"}]}
{"molecule": "C[C@H]1c2cccc(O)c2C(=O)C2=C(O)[C@]3(O)C(=O)C(C(N)=O)=C(O)[C@@H](N(C)C)[C@@H]3[C@@H](O)[C@@H]21", "note": "[doxycycline]", "values": [{"measurement": "duration of dox treatment sufficient for APO1-YTH induction and EGFP fluorescence", "setting": "APO1-YTH", "value": 24, "unit": "h"}]}
{"molecule": "STM2457", "values": [{"measurement": "C-to-U editing of the m6A sensor sequence (RT-PCR/Sanger sequencing)", "setting": "METTL3 [2]", "value": "lower levels of C-to-U editing; also recorded: reduced C-to-U editing"}, {"measurement": "GFP fluorescence of m6A sensor system", "setting": "METTL3 [2]", "value": "reduces GFP fluorescence"}, {"measurement": "GFP protein (Western blot)", "setting": "METTL3 [2]", "value": "reduced GFP protein; also recorded: reduction of GFP expression"}]}
